Type in all cases: binding
Conditions in all cases: SD

The target of one assay is T1, RSL (Ralstonia solanacearum, UniProt A0A0S4TLR1).
T1 construct: gene E7Z57_08365
The assay is described as follows: biochemical.

For a further assay, the target named is T2, RSL[4FW].
T2 construct: all seven Trp replaced by 4-fluorotryptophan (85% of protein 7/7 labeled); from pQE80L-RSL in E. coli BWEC47; homotrimer

A further assay deals with T3, RSL[5FW].
T3 construct: all seven Trp replaced by 5-fluorotryptophan (86% of protein 7/7 labeled); from pQE80L-RSL in E. coli BWEC47; homotrimer

The target of another assay is T4, RSL[7FW].
T4 construct: all seven Trp replaced by 7-fluorotryptophan (84% of protein 7/7 labeled); from pQE80L-RSL in E. coli BWEC47; homotrimer

Turning to `CO[C@@H]1O[C@@H](C)[C@@H](O)[C@@H](O)[C@@H]1O` [αMeFuc, methyl α-L-fucopyranoside], the Kd on RSL came to 1.21 µM; at RSL[4FW], 1.73 µM; at RSL[5FW], 0.889 µM; on RSL[7FW] it was 1.11 µM.

As to `CC(=O)N[C@H]1[C@H](O[C@H]2[C@@H](O)[C@@H](CO)OC(O)[C@@H]2O)O[C@H](CO)[C@@H](O[C@@H]2O[C@H](CO)[C@H](O)[C@H](O)[C@H]2O)[C@@H]1O[C@@H]1O[C@@H](C)[C@@H](O)[C@@H](O)[C@@H]1O` (stereo partly drawn) [LeX, lewis X tetrasaccharide, Galβ1–4[Fucα1–3]GlcNAcβ1–3Gal], the Kd at RSL is 32.5 µM; on RSL[4FW], 67.8 µM; at RSL[5FW], 52.4 µM; at RSL[7FW], 52.1 µM.

`CC(=O)N[C@H]1[C@H](O[C@H]2[C@@H](O)[C@@H](CO)OC(O)[C@@H]2O)O[C@H](CO)[C@@H](O[C@@H]2O[C@H](CO)[C@H](O)[C@H](O)[C@H]2O[C@@H]2O[C@@H](C)[C@@H](O)[C@@H](O)[C@@H]2O)[C@@H]1O` (stereo partly drawn) [HType2, blood group H type 2 antigen tetrasaccharide, Fucα1–2Galβ1–4GlcNAcβ1–3Gal]: the Kd on RSL worked out at 6.36 µM; at RSL[4FW], 8.18 µM; on RSL[5FW] it was 6.06 µM; on RSL[7FW] it was 4.35 µM.

A word on the Kd: it is the concentration at which binding is half-saturated. A higher Kd goes with lower affinity.

The values above are taken from publication PMC6102642, “Effect of Noncanonical Amino Acids on Protein–Carbohydrate Interactions: Structure, Dynamics, and Carbohydrate Affinity of a Lectin Engineered with Fluorinated Tryptophan Analogs” (ACS Chemical Biology, 2018).
